Measurements taken from publication PMC12303054, “First-in-class inhibitors of Nsp15 endoribonuclease of SARS-CoV-2: Modeling, synthesis, and enzymatic assay of thiazolidinedione and rhodanine analogs” (The Journal of Biological Chemistry, 2025).
Several values for one entry are separate records, joined by “and”; a condition that tells them apart may be missing. Equal values may be shown once. Entries after “also recorded” stand apart in the source; their conditions may differ. Read-outs that look alike come from different tables or passages of the source.

Legend:
Nsp15 = details: cited from earlier work
[1] = biological target: T1, wildtype SARS-CoV-2 Nsp15 (Severe acute respiratory syndrome coronavirus 2, UniProt P0DTD1); test: biochemical; details: for IC50: 150 nM enzyme, 1.2 μM substrate, 30 min, 25 °C, mean (SD), duplicates; for change of inhibitory effect relative to parent analog: comparison of IC50 values; for IC50 versus time: IC50 calculated every 5 min for 30 min; for inhibition model: extra sum-of-squares F test; for Vmax: fit parameter of mixed inhibition model for the named inhibitor
[2] = biological target: T1, wildtype SARS-CoV-2 Nsp15; test: Nsp15 inhibition in HEPES buffer assay conditions; type: biochemical; details: 10 nM Nsp15, 500 nM substrate, 100 μM compound
SARS-CoV-2 = SARS-CoV-2 plaque assay in VeroE6/TMPRSS2 cells; type: cell-based; details: for IC50: 24 h infection, MOI = 0.1, read-out: IC50 (viral inhibition, plaque assay)
in vitro = type: cell-based; details: African green monkey, uninfected cells, intracellular ATP
Description: (§1) Initially, we grew VeroE6/TMPRSS2 cells overnight in 96-well plates at 10,000 cells per well. The next day, we added increasing concentrations of the tested compound (500, 200, 100, 50, 20, 10, 5, 2, and 1 μM) and DMSO as a control. We let the cells incubate with inhibitors for 24 h. After 24 h, we measured the viability of these cells using the CellTiter-Glo Luminescent Cell Viability Assay (Promega), according to the manufacturer’s instructions. We incubated cells in 100 μl of media with 100 μl of CellTiter-Glo reagent, which contains Ultra-Glo luciferase and the substrate luciferin. The luciferase converts luciferin to luminescent oxyluciferin in the presence of ATP. Viable cells produce more ATP and generate a stronger luminescent signal. We mixed samples by shaking for 10 min and measured luminescence by a VICTOR Nivo Plate Reader (Avantor Science Central).

SARS-CoV-2 RNA = type: cell-based; details: 24 h infection, MOI = 0.1
SARS-CoV-2 Nsp15 = SARS-CoV-2 Nsp15 (Severe acute respiratory syndrome coronavirus 2, UniProt P0DTD1); test: Reversibility by the dilution method; type: biochemical; details: preincubated 60 min, diluted 1:100
VeroE6/TMPRSS2 cells = test: in vitro; type: cell-based; details: uninfected cells, 24 h, intracellular ATP
Description: as §1

[3] = noncompetitive inhibition model, IC50-to-Ki converter, read-out: Predicted Ki
[4] = mixed inhibition model fit, mean ± SD
[5] = mixed inhibition model fit, mean ± SD, read-out: Ki
[6] = Severe acute respiratory syndrome coronavirus 2, VeroE6/TMPRSS2, 24 h

For `Oc1ccc2ccccc2c1SSc1c(O)ccc2ccccc12` [IPA-3], the IC50 (Nsp15) is given as 7 µM and the “inhibition mechanism” value (Nsp15) is given as “irreversibly inhibited Nsp15”.
In the case of `O=C1NC(=O)C(=CC=Cc2c3ccccc3cc3ccccc23)S1` [KCO035, 5-(3-anthracen-9-yl-allylidene)-thiazolidine-2,4-dione], the “inhibitory effect on Nsp15 activity” value [1] is reported as “mild inhibitory effect”, the IC50 [1] is reported as 7.21 µM and the inhibition at 100 µM ([1]; 100 μM compound) is reported as ~80%. It also gave a Ki [1, 3] of 7.14 µM.
With `O=C1NC(=O)C(=CC=Cc2ccccc2)S1` [KCO036, 5-(3-Phenyl-allylidene)-thiazolidine-2,4-dione] the “inhibitory effect on Nsp15 activity” value [1] was “weak inhibitor”, the IC50 [1] was 9.4 µM and the “change of inhibitory effect relative to parent analog” value [1] was “reduced inhibitory effect”. The Ki [1, 3] was 9.33 µM.
In the case of `O=C1NC(=O)C(=CC=Cc2ccnc3ccccc23)S1` [KCO048], the “inhibitory effect on Nsp15 activity” value [1] is reported as “low micromolar concentrations”, the IC50 [1] is reported as 1.35 µM and the “change of inhibitory effect relative to parent analog” value [1] is reported as “threefold greater inhibitory effect than KCO231”. The Ki [1, 3] was 1.27 µM.
For `O=C1NC(=S)SC1=CC=Cc1c2ccccc2cc2ccccc12` [KCO230, 5-(3-anthracen-9-yl-allylidene)-2-thioxo-thiazolidin-4-one], the IC50 [1] was 4.58 µM, the “change of inhibitory effect relative to parent analog” value [1] was “nearly doubled” and the Ki [1, 3] was 4.5 µM.
In the case of `O=C1NC(=O)C(=CC=Cc2cccc3ccccc23)S1` [KCO231, 5-(3-naphthalen-1-yl-allylidene)-thiazolidine-2,4-dione], the IC50 [1] is reported as 4.41 µM, the “change of inhibitory effect relative to parent analog” value [1] is reported as “doubled the inhibitory effect” and the Ki [1, 3] is reported as 4.34 µM.
With `O=C1NC(=O)C(=CC=Cc2cncc3ccccc23)S1` [KCO234, 5-(3-isoquinolin-4-yl-allylidene)-thiazolidine-2,4-dione] the IC50 [1] was 7.38 µM, the “change of inhibitory effect relative to parent analog” value [1] was “did not enhance inhibitory activity” and the Ki [1, 3] was 7.3 µM.
With `O=C1NC(=O)C(=CC=Cc2cccc3ccncc23)S1` [KCO235, 5-(3-isoquinolin-8-yl-allylidene)-thiazolidine-2,4-dione] the IC50 [1] was 4.17 µM, the “change of inhibitory effect relative to parent analog” value [1] was “moderate increase in inhibitory effect” and the Ki [1, 3] was 4.1 µM.
For `O=C1NC(=O)C(=CC=Cc2ccc3cnccc3c2)S1` [KCO236, 5-(3-isoquinolin-6-yl-allylidene)-thiazolidine-2,4-dione], the “inhibitory effect on Nsp15 activity” value [1] was “submicromolar levels”, the IC50 [1] was 0.932 µM and the “change of inhibitory effect relative to parent analog” value [1] was “moderate increase in inhibitory effect”. The Ki [1, 3] was 0.857 µM.
For `O=C1NC(=S)SC1=CC=Cc1ccnc2ccccc12` [KCO237, 5-(3-quinolin-4-yl-allylidene)-2-thioxo-thiazolidine-4-one], the “inhibitory effect on Nsp15 activity” value [1] was “submicromolar levels”, the IC50 [1] was 0.304 µM and the Ki ([1]; Cheng–Prusoff equation, noncompetitive inhibition assumed, read-out: predicted Ki) was 0.23 µM. For the same compound, the “IC50 versus time” value [1] was “consistent through the period of the assay; also recorded: remained constant over the time of the assay”, the “change of inhibitory effect relative to parent analog” value [1] was “fivefold increase in potency compared with KCO048” and the “inhibition model” value [1] was “reversible mixed inhibition model”. For the same compound, the Vmax [1] was 1.57 ± 0.0568 µM/min, the α [1, 4] was 0.343 ± 0.188 and the Ki [1, 5] was 0.318 ± 0.134 µM. The Ki [1, 3] was 0.229 µM, the “inhibition under HEPES assay conditions” value [2] was “inhibited Nsp15 more potently than tipiracil under these conditions” and the IC50 (SARS-CoV-2) was 13.9 ± 1.95 µM. The IC50 (SARS-CoV-2; [6]) was 14 µM, the CC50 at 24 h (in vitro) was > 500 µM and the “intracellular SARS-CoV-2 RNA” value (SARS-CoV-2 RNA) was “significantly reduced viral RNA in a dose-dependent manner”. For the same compound, the “Nsp15 activity after inhibitor dilution” value (SARS-CoV-2 Nsp15) was “recovered its activity”.
With `CN1C(=O)SC(=CC=Cc2c3ccccc3cc3ccccc23)C1=O` [KCO238, 3-methyl-5-(3-anthracen-9-yl-allylidene)-thiazolidine-2,4-dione] the “inhibitory effect on Nsp15 activity” value [1] was “did not inhibit Nsp15 activity; also recorded: lose their inhibitory effect” and the IC50 [1] was 106 µM.
With `O=C1NC(=S)SC1=CC=Cc1cccc2ccccc12` [KCO249, 5-(3-naphthalen-1-yl-allylidene)-2-thioxo-thiazolidin-4-one] the “inhibitory effect on Nsp15 activity” value [1] was “low micromolar concentrations”, the “change of inhibitory effect relative to parent analog” value [1] was “enhanced its inhibitory effect by sixfold” and the Ki [1, 3] was 1.28 µM.
With `CN1C(=O)SC(=CC=Cc2cccc3ccccc23)C1=O` [KCO250, 3-methyl-5-(3-naphthalen-1-yl-allylidene)-thiazolidine-2,4-dione] the “inhibitory effect on Nsp15 activity” value [1] was “did not inhibit Nsp15 activity; also recorded: lose their inhibitory effect” and the IC50 [1] was > 1000 µM.
In the case of `O=C1NC(=S)SC1=CC=Cc1cncc2ccccc12` [KCO251, 5-(3-isoquinolin-4-yl-allylidene)-2-thioxo-thiazolidin-4-one], the “inhibitory effect on Nsp15 activity” value [1] is reported as “submicromolar levels”, the IC50 [1] is reported as 0.931 µM and the “IC50 versus time” value [1] is reported as “consistent through the period of the assay; also recorded: remained constant over the time of the assay”. The “change of inhibitory effect relative to parent analog” value [1] was “eightfold increase in inhibition potency”, the “inhibition model” value [1] was “reversible mixed inhibition model” and the Vmax [1] was 3.38 ± 0.170 µM/min. The α [1, 4] was 0.293 ± 0.280, the Ki [1, 5] was 0.471 ± 0.33 µM and the Ki [1, 3] was 0.856 µM. For the same compound, the “inhibition under HEPES assay conditions” value [2] was “inhibited Nsp15 more potently than tipiracil under these conditions”, the “selectivity index (SI)” value (SARS-CoV-2; CC50 over IC50) was ~13 and > 10 and the IC50 (SARS-CoV-2; [6]) was 24 µM. The CC50 at 24 h (in vitro) was > 300 µM, the CC50 (VeroE6/TMPRSS2 cells) was 311 ± 120 µM and the “intracellular SARS-CoV-2 RNA” value (SARS-CoV-2 RNA) was “significantly reduced viral RNA in a dose-dependent manner”. The “Nsp15 activity after inhibitor dilution” value (SARS-CoV-2 Nsp15) was “recovered its activity”.
For `O=C1C(SCCO)=C(SCCO)C(=O)c2ccccc21` [NSC95397], the IC50 (Nsp15) is given as 43 µM.
For `N=C1CCCN1Cc1nc(O)nc(O)c1Cl` [Tipiracil, tipiracil, reference compound], the “inhibitory effect on Nsp15 activity” value [1] was “did not inhibit Nsp15 activity”, the IC50 [1] was > 1000 µM and the “inhibition under HEPES assay conditions” value [2] was “did inhibit Nsp15 under these conditions but to a lesser extent than KCO237 and KCO251”. The IC50 (Nsp15) was 7.5 µM.
For `Oc1c(Cl)cc(Cl)c(Cl)c1Cc1c(O)c(Cl)cc(Cl)c1Cl` [hexachlorophene], the IC50 (Nsp15) is given as 1 µM.
